Like-named read-outs stand apart in the source and are kept apart here. Each block holds one molecule with its values, some of them ahead of it.
How the values were obtained:
[1] = biological target: T1, human insulin receptor kinase (Homo sapiens, UniProt P06213); experiment: Kinase assay: phosphorylation of exogenous src-related peptide by purified insulin receptor; format: biochemical; conditions: for activation of the insulin receptor kinase over the control: 1 μM basic protein or polyamine, preincubated 25° C. 1 hour, FIG. 1; for reactivation of receptor preparations that lost kinase activity or insulin dependency: aged preparations stored at -70° C.; for concentrations at which kinase activity is stimulated: dose response
T1 construct: from tissue; host or cells: human placenta (Triton X-100 solubilized membranes; wheat germ agglutinin and insulin-Sepharose chromatography)
Description: The substrate used is a synthetic peptide (src-related peptide) which resembles the amino acid sequence around the site of phosphorylation of the tyrosine residue in the Rous sarcoma virus transforming protein, pp60^src, with the sequence ([…], Casnellie, J. E., et al., Proc. Natl. Acad. Sci. USA 79:282 (1982).
The phosphorylation assays were carried out at 25° C. for 40 minutes in 30 ul of 50 mM Tris-HCl buffer (pH 7.4) containing 1 mM of the src-related peptide, 2 mM MnCl2, 15 mM MgCl2, 0.1% Triton X-100, and 40 μM [γ-^32 ]ATP (12,000 cpm/pmole). The reaction was terminated by adding 50 μl of 5% trichloroacetic acid (TCA) and 20 μl of bovine serum albumin (BSA) (10 mg/ml), the resulting solution was then incubated at 0° C. for 30 minutes, and the proteins were precipitated by centrifugation. Aliquots (35 μl) of the resulting supernatant were spotted on phosphocellulose paper (Whatman, P-81). The papers were extensively washed in 75 mM phosphoric acid. Duplicates of the papers were prepared from each reaction mixture and ^32 P incorporated into the src-related peptide was counted using a liquid scintillation counter.

[2] = system: insulin receptor kinase; conditions: literature, cited from earlier work
[3] = system: β subunit of the insulin receptor and calmodulin; conditions: rat hepatocyte insulin receptor preparations, absence of insulin; literature; cited from earlier work
[4] = biological target: T2, insulin receptor β subunit (Homo sapiens, UniProt P06213); experiment: Phosphorylation (autophosphorylation) of insulin receptor subunits, SDS-PAGE and autoradiography; format: biochemical
T2 construct: from tissue; host or cells: human placenta (Triton X-100 solubilized membranes; wheat germ agglutinin and insulin-Sepharose chromatography)
Description: The β subunit of the purified receptor was phosphorylated in the same manner as described above for the exogenous substrate phosphorylation. The reaction was terminated by adding 3-times concentrated Laemmli's sample buffer followed by boiling for 5 minutes. SDS-polyacrylamide gel electrophoresis was then performed under reducing conditions as described by Laemmli, U. K., Nature 227:680 (1970). The gels were stained with silver, dried, and autoradiographed.
After the kinase reaction was terminated by adding TCA and BSA as described in the above procedures, the proteins containing the insulin receptor were precipitated by centrifugation. The precipitated proteins were then subjected to SDS polyacrylamide gel electrophoresis (7.5% gel) under reducing conditions. The gels were stained with silver, dried, and autoradiographed for 30 hours using a Kodak XAR-5 film and an intensifying screen.
The insulin receptor was then phosphorylated according to the procedures described above. After the phosphorylation, the receptors were analyzed by SDS polyacrylamide gel electrophoresis (10% gel) under non-reducing conditions. The gel was dried and autoradiographed for 45 minutes at -70° C. by exposing the gel to a Kodak XAR-5 film with an intensifying screen.

[5] = biological target: T3, β and α subunits of the insulin receptor (Homo sapiens, UniProt P06213); experiment: Phosphoamino acid analysis of phosphorylated β and α subunits by paper electrophoresis; format: biochemical
T3 construct: from tissue; host or cells: human placenta (Triton X-100 solubilized membranes; wheat germ agglutinin and insulin-Sepharose chromatography)
Description: Chem 254:1206 (1984), and hydrolyzing the peptides in 2N HCl for 2 hours at 110° C. The materials were then analyzed by paper electrophoresis (pH 3.5, 2000 V, 1 hour) and autoradiography.
Lanes 1-4 of FIG. 4B contain amounts of hydrolysates equal to 50% of the starting materials from the FIG. 4A gel. […] Other radioactive samples were electrophoresed together with these three phosphoamino acids. Ninhydrin spots for those are not shown. X indicates the origin of the samples.

- Kinase activity ([1]; preincubation with 0.1 mM DTT): 0.059 pmol/min
- Kinase activity ([1]; preincubation with 0.5 mM DTT): 0.083 pmol/min
- fold induction at 100 µM ([1]; read-out: Kinase Activity -fold, preincubation with 0.1 mM DTT, relative to no addition): 9.8
- fold induction at 500 µM ([1]; read-out: Kinase Activity -fold, preincubation with 0.5 mM DTT, relative to no addition): 13.8
Molecule: O[C@H](CS)[C@H](O)CS (racemic) [DTT, dithiothreitol, reference compound]
- activation of the insulin receptor kinase [2]: activate the insulin receptor kinase
- activation of the insulin receptor kinase ([2]; listed as dithiothreitol (DTT)): activates the insulin receptor kinase

Molecule: OO [H2 O2, hydrogen peroxide]
- activation of the insulin receptor kinase [2]: activate the insulin receptor kinase

Molecule: [Na+].[Na+].[Na+].[O]=[V]([O-])([O-])[O-] [vanadate, sodium orthovanadate]
- activation of the insulin receptor kinase [2]: activate the insulin receptor kinase

Molecule: concanavalin A
- activation of the insulin receptor kinase [2]: activate the insulin receptor kinase

Molecule: histone Hf2b [reference compound]
- stimulation of phosphorylation of the β subunit of the insulin receptor (and calmodulin) [3]: appeared to stimulate the phosphorylation of both the β subunit of the insulin receptor and calmodulin

Molecule: insulin
- activation of the insulin receptor kinase [2]: activate the insulin receptor kinase

Molecule: poly L-arginine
- effect on kinase activity in dose response ([1]; all concentrations examined, FIG. 2): inhibited the kinase activity of the receptor at any of the concentrations examined
- stimulation of phosphorylation of the β subunit of the insulin receptor (and calmodulin) [3]: effective to stimulate the phosphorylation of the β subunit of the insulin receptor

Molecule: poly L-lysine
- kinetic analysis (Vmax, KM), Lineweaver-Burk plots ([1]; 0.24 μM poly L-lysine, varying src-related peptide, FIGS. 6B, 6C): increasing Vmax without significantly changing KM
- activation of the insulin receptor kinase over the control [1]: approximately 5 fold
- stimulative effect on kinase activity ([1]; 100 μM poly L-lysine, FIG. 3A): can no longer be seen
- reactivation of receptor preparations that lost kinase activity or insulin dependency [1]: can activate certain old insulin receptor preparations
- reactivation of receptor preparations that lost kinase activity or insulin dependency ([1]; listed as Poly L-lysine): able to restore the kinase activity of insulin receptor preparation that have lost some, but not all, kinase activity
- concentrations at which kinase activity is stimulated ([1]; FIG. 2): 0.1 to 1.0 µM
- kinase activation compared with activation by insulin ([1]; optimum poly L-lysine concentrations vs 1 μM insulin, FIG. 3A): much greater than the kinase activation by insulin
- Kinase activity ([1]; preincubation with 0.24 μM PLL): 0.234 pmol/min
- Kinase Activity -fold ([1]; preincubation with 0.24 μM PLL, relative to no addition): 39 fold
- Kinase activity ([1]; receptor preparation A, stored 36 Mo. at -70° C., 1 μM insulin or 0.24 μM poly L-lysine): 0.002 pmol/min
- Kinase activity ([1]; receptor preparation B, stored 28 Mo. at -70° C., 1 μM insulin or 0.24 μM poly L-lysine): 0.174 pmol/min
- Kinase activity ([1]; receptor preparation C, stored 15 Mo. at -70° C., 1 μM insulin or 0.24 μM poly L-lysine): 0.229 pmol/min
- Kinase activity ([1]; receptor preparation D, stored 3 Mo. at -70° C., 1 μM insulin or 0.24 μM poly L-lysine): 2.30 pmol/min
- Kinase activity ([1]; receptor preparation E, stored <3 Days, 1 μM insulin or 0.24 μM poly L-lysine): 1.13 pmol/min
- kinase activity after poly L-lysine treatment ([1]; receptor preparations older than 36 months (data not shown)): no kinase activity
- stimulation of phosphorylation of the β subunit of the insulin receptor (and calmodulin) [3]: appeared to stimulate the phosphorylation of both the β subunit of the insulin receptor and calmodulin
- phosphorylation of insulin receptor subunits ([4]; 0.25 μM poly L-lysine, non-reducing SDS-PAGE, FIG. 4A lane 3): stimulates phosphorylation of α and β1 subunits in addition to the β subunit
- stimulation of β subunit autophosphorylation compared with insulin ([4]; 0.001-10 μM poly L-lysine, with or without 1 μM insulin, FIG. 3B): greater than that of insulin
- β subunit phosphorylation, radioactivity of hydrolysate ([5]; 0.25 μM poly L-lysine, 20% of the original material, FIG. 4B lane 6): 1700 cpm
- α subunit phosphorylation, radioactivity of hydrolysate ([5]; 0.25 μM poly L-lysine, hydrolysate equal to 50% of starting material, FIG. 4B lane 4): 1000 cpm
- β subunit phosphorylation, radioactivity of hydrolysate ([5]; 1 μM insulin or 0.25 μM poly L-lysine, hydrolysate equal to 50% of starting material, FIG. 4B): 4400 cpm
- phosphoamino acid composition of phosphorylated β and α subunits ([5]; FIG. 4B): tyrosine was found to be a major amino acid whose phosphorylation was stimulated

Molecule: poly L-ornithine
- activation of the insulin receptor kinase over the control [1]: approximately 4 fold
- concentrations at which kinase activity is stimulated ([1]; FIG. 2): 0.1 to 1.0 µM
- stimulation of phosphorylation of the β subunit of the insulin receptor (and calmodulin) [3]: effective to stimulate the phosphorylation of the β subunit of the insulin receptor

Molecule: protamine sulfate
- stimulatory effect on kinase activity relative to basal ([1]; 10 μM, FIG. 2): approximately two-fold
- stimulation of phosphorylation of the β subunit of the insulin receptor (and calmodulin) [3]: appeared to stimulate the phosphorylation of both the β subunit of the insulin receptor and calmodulin
